Like-named read-outs stand apart in the source and are kept apart here.
Experiments:
Pim-1 [1] = biological target: T1, Pim-1 (Homo sapiens (Human), UniProt P11309); assay: Pim enzyme assay (HTRF, 96-well), Pim-1; assay type: biochemical; details: full length recombinant Pim-1, biotinylated-BAD (S112) peptide, 10-point curve, 2 h RT, read-out: Pim-1 IC50 IP
Description: These cDNAs were used as templates in PCR reactions to produce full-length DNA clones of the PIMs. […] PCR products were digested with BclI and EcoRI for Pim-1 and BamHI and EcoRI for Pim-2 and ligated into a modified baculovirus transfer vector (pFastBac1) cleaved with BamHI and EcoRI. For bacterial expression, the same cleaved PCR products encoding Pim-1 or Pim-2 were ligated into a modified E. coli expression vector pET28(a) cleaved with BamHI and EcoRI. Amino-terminal hexahistidine tags followed by a thrombin cleavage site were previously added to the vectors using standard methods of molecular biology.
Recombinant baculoviruses expressing Pim-1 or Pim-2 were made using standard methods (Fastbac manual, Invitrogen, Carlsbad, Calif.). […] Cells were harvested by centrifugation and frozen at −80 C. For E. coli expression, cells carrying pET28-His6-Th-Pim-1 or pET28-His6-Th-Pim-2 were picked from a single colony and grown o/n in LB media. The o/n culture was used to inoculate a 2 liter flask with 500 mL media. This was grown o/n and used to inoculate 15-20 liters of Terrific Broth in a New Brunswick Scientific fermentor. The E. coli were grown at 37° C. to and OD600 >1.6. The temperature was dropped to 18° C. and o/n expression was induced with 0.5 mM IPTG. Cells were harvested by centrifugation and frozen at −80° C.
The slurry was centrifuged at 1,000×g for 5 min, the supernatant decanted, and the resin suspended in 40 mL of lysis wash buffer (lysis buffer at 0.75 M NaCl). This step was repeated 3× and the resin was transferred to a 2.5 cm glass column. Ten column volumes of wash buffer (0.05 M HEPES, pH 8.0, 0.1 M NaCl, 0.01 M 2-mercaptoethanol, 10%(w/v) glycerol) were applied to the resin followed by 10 column volumes of elution buffer (0.05 M HEPES, pH 8.0, 0.25 M NaCl, 0.01 M 2-mercaptoethanol, 10%(w/v) glycerol, 0.1 M imidazole). Fractions were analyzed by SDS-PAGE and those containing the protein of interest were pooled and concentrated. The concentrated protein was applied to an Amersham Superdex 75 (XK 26/60) column equilibrated in 0.025 M Tris-HCl, pH 7.5, 0.1 M NaCl, 0.01 M 2-mercaptoethanol, 10% (w/v) glycerol. […] Fractions containing the monomeric protein of interest were pooled, concentrated to ˜2 mg/mL, and stored at −80° C.
The phosphorylation of biotinylated-BAD (S112) peptide by full length recombinant Pim-1, Pim-2, or Pim-3 protein was detected with streptavidin:Allophycocyanin (APC) conjugate and a europium (Eu) labeled antibody directed against phosphorylated-BAD (S112). […] The fluorescence is directly proportional to the amount of phosphorylated BAD peptide present in the reaction. […] A reference compound was included on each assay plate in order to validate that plate; on one plate of every assay run, two additional reference compounds were included. The final buffer conditions were as follows: 60 mM Hepes, pH 7.0, 0.05% BSA, 2 mM DTT. Incubations were carried out at RT (22° C.) for 2 h for Pim-1, 1 hour and 30 min for Pim-3, and 45 min for Pim-2. The reaction was stopped by the addition of 3 mM EDTA, and fluorescence was measured by an HTRF® Rubystar microplate reader. For each plate, percent of control (POC) values were calculated for each well. Values for the IC50 IP were estimated using a standard 4-parameter logistic model.

Pim-2 = Pim-2 (Homo sapiens (Human), UniProt Q9P1W9); assay: Pim-Mn enzyme assay (HTRF, 384-well), Pim-2; assay type: biochemical; details: Pim-2 enzyme 0.5 pM, ATP 1.5 μM, BAD (S112) 0.5 μM, HTRF, 22-point curve; read-out: Pim-2-Mn IC50 IP
Sequence of Pim-2 (Q9P1W9 whole entry): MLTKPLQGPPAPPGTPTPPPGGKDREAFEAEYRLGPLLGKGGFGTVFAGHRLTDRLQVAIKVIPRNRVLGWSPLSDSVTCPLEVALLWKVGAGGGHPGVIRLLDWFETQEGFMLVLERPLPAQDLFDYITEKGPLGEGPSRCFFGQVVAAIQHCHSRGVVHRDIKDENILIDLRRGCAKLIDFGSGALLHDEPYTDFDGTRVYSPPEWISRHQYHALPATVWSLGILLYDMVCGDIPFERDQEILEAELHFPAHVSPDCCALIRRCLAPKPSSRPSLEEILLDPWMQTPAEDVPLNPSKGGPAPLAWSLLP

KMS-12-BM cell lines = assay: KMS12 #2 flow cytometry assay (phospho-BAD Ser112); assay type: cell-based; details: Homo sapiens, KMS-12-BM, 110 min, read-out: KMS-12-Flow IC50 IP
Pim-1 [2] = biological target: T1, Pim-1; assay: Pim-Mn enzyme assay (HTRF, 384-well), Pim-1; assay type: biochemical; details: Pim-1 enzyme 5 pM, ATP 1.5 μM, BAD (S112) 0.5 μM, HTRF, 22-point curve; read-out: Pim-1-Mn IC50 IP
[3] = system: KMS-12-BM myeloma cell line; assay: Pim KMS-12 cell assay (phospho-BAD S112 / total BAD, MSD)
[4] = Homo sapiens, KMS-12-BM, read-out: KMS-12-BM IC50 IP
[5] = Homo sapiens, KMS-12-BM, read-out: KMS-12-BM IC50 IP, KMS-12-BM cells, phospho-BAD (S112) vs total BAD, 1 hour 50 min with compound

T1 sequence (P11309 whole entry): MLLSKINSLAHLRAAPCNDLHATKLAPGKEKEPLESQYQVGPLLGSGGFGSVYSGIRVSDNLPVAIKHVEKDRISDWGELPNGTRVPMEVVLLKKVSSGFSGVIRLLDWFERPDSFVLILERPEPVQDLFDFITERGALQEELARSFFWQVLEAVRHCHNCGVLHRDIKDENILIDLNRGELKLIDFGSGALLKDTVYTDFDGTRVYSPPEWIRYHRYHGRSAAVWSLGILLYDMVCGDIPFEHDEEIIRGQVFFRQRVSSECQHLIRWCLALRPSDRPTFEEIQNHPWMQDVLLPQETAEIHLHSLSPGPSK

| IC50 (Pim-1 [1]) [nM] | IC50 (Pim-2) [nM] | IC50 (Pim-1 [2]) [nM] | IC50 [3, 5] [nM] | Molecule | also measured |
| --- | --- | --- | --- | --- | --- |
| 60.9 | – | – | – | CCC1CNC(=O)c2cc(-c3cccc4ccc(Cl)nc34)[nH]c21 (racemic) [Example 22, rac-2-(2-chloroquinolin-8-yl)-7-ethyl-6,7-dihydro-1H-pyrrolo[3,2-c]pyridin-4(5H)-one] | – |
| 14.1 | – | – | – | CCC1CNC(=O)c2cc(-c3cccc4ccc(Oc5ccccc5)nc34)[nH]c21 (racemic) [Example 23, rac-7-ethyl-2-(2-phenoxyquinolin-8-yl)-6,7-dihydro-1H-pyrrolo[3,2-c]pyridin-4(5H)-one] | – |
| – | 4.3 | 3.1 | 750 | Cc1nc2cccc(-c3cc4c([nH]3)CCNC4=O)c2nc1SC(C)(C)C [Example 221, 2-(3-(tert-butylthio)-2-methylquinoxalin-5-yl)-6,7-dihydro-1H-pyrrolo[3,2-c]pyridin-4(5H)-one] | – |
| – | 4.5 | 4.9 | 1140 | Cc1nc2cccc(-c3cc4c([nH]3)CCNC4=O)c2nc1NC1CCCCC1O (racemic) [Example 205, 2-(3-((2-hydroxycyclohexyl)amino)-2-methylquinoxalin-5-yl)-6,7-dihydro-1H-pyrrolo[3,2-c]pyridin-4(5H)-one] | – |
| – | 2.8 | 6.7 | 533 | Cc1nc2cccc(-c3cc4c([nH]3)CCNC4=O)c2nc1NCC1(C)COC1 [Example 281, 2-(2-methyl-3-(((3-methyl-3-oxetanyl)methyl)amino)-5-quinoxalinyl)-1,5,6,7-tetrahydro-4H-pyrrolo[3,2-c]pyridin-4-one] | – |
| – | 5.6 | 1.2 | 232 | Cc1nc2cccc(-c3cc4c([nH]3)CCNC4=O)c2nc1NC1(C)CCOCC1 [Example 203, 2-(2-methyl-3-((4-methyltetrahydro-2H-pyran-4-yl)amino)quinoxalin-5-yl)-6,7-dihydro-1H-pyrrolo[3,2-c]pyridin-4(5H)-one] | – |
| – | 1.9 | 3.1 | 713 | Cc1nc2cccc(-c3cc4c([nH]3)CCNC4=O)c2nc1NC1CC(O)C1 (stereo not drawn) [Example 72, 2-(3-((3-hydroxycyclobutyl)amino)-2-methyl-5-quinoxalinyl)-1,5,6,7-tetrahydro-4H-pyrrolo[3,2-c]pyridin-4-one] | – |
| – | 1.2 | 0.6 | 892 | Cc1nc2cccc(-c3cc4c([nH]3)CCNC4=O)c2nc1N[C@@H]1CCCNC1 [Example 75, 2-(2-methyl-3-((3R)-3-piperidinylamino)-5-quinoxalinyl)-1,5,6,7-tetrahydro-4H-pyrrolo[3,2-c]pyridin-4-one] | – |

Further lines, the molecule ahead of its results:

| Molecule | IC50 (Pim-1 [1]) [nM] | IC50 (Pim-2) [nM] | IC50 (Pim-1 [2]) [nM] | IC50 [3, 5] [nM] | also measured |
| --- | --- | --- | --- | --- | --- |
| O=C1NCCc2[nH]c(-c3c(F)ccc4ccc(NC5CCCCC5)nc34)cc21 [Example 90, 2-(2-(cyclohexylamino)-7-fluoroquinolin-8-yl)-6,7-dihydro-1H-pyrrolo[3,2-c]pyridin-4(5H)-one] | 340 | – | – | – | – |
| O=C(NC1CC1)c1ccc2cccc(-c3cc4c([nH]3)CCNC4=O)c2n1 [Example 94, N-cyclopropyl-8-(4-oxo-4,5,6,7-tetrahydro-1H-pyrrolo[3,2-c]pyridin-2-yl)quinoline-2-carboxamide] | 269 | – | – | – | – |
| Cn1cc(-c2cccc3ccc(Nc4ccccc4)nc23)cc1C(N)=O [Example 164, 1-methyl-4-(2-(phenylamino)quinolin-8-yl)-1H-pyrrole-2-carboxamide] | 243 | – | – | – | – |
| Cc1nc2cccc(-c3cc4c([nH]3)CCNC4=O)c2nc1NC1CCCCCC1 [Example 134, 2-(3-(cycloheptylamino)-2-methylquinoxalin-5-yl)-6,7-dihydro-1H-pyrrolo[3,2-c]pyridin-4(5H)-one] | 8.9 | – | – | – | – |
| O=C1NCCn2cc(-c3cccc4ccc(C(=O)N5CCCC5)nc34)cc21 [Example 168, 7-(2-(pyrrolidine-1-carbonyl)quinolin-8-yl)-3,4-dihydropyrrolo[1,2-a]pyrazin-1(2H)-one] | 608 | – | – | – | – |
| O=C(Nc1ccccc1)c1ccc2cccc(-c3cc4c([nH]3)CCNC4=O)c2n1 [Example 95, 8-(4-oxo-4,5,6,7-tetrahydro-1H-pyrrolo[3,2-c]pyridin-2-yl)-N-phenylquinoline-2-carboxamide] | 222 | – | – | – | – |
| Cc1nc2ccc(F)c(-c3cc4c([nH]3)CCNC4=O)c2nc1NC(C)(C)C [Example 286, 2-(3-(tert-butylamino)-6-fluoro-2-methylquinoxalin-5-yl)-6,7-dihydro-1H-pyrrolo[3,2-c]pyridin-4(5H)-one] | – | 0.305 | 0.289 | – | IC50 (KMS-12-BM cell lines): 28.2 nM; IC50 [3, 4]: 143 nM |
| Cc1nc2cccc(-c3cc4c([nH]3)CCNC4=O)c2nc1NC1(C)CC1 [Example 202, 2-(2-methyl-3-((1-methylcyclopropyl)amino)quinoxalin-5-yl)-6,7-dihydro-1H-pyrrolo[3,2-c]pyridin-4(5H)-one] | – | 0.3 | 0.3 | 41.3 | – |
| 2′-(3-(cyclopropylamino)-6-fluoro-2-methylquinoxalin-5-yl)-1′H-spiro[cyclopropane-1,6′-pyrrolo[3,4-b]pyrrol]-4′(5′H)-one [Example 283] | – | 0.8 | 3.3 | – | IC50 ([3]; read-out: KMS-12-BM IC50 IP, KMS-12-BM cells, phospho-BAD (S112) vs total BAD, 1 hour 50 min with compound): 199 nM |
| Cc1nc2cccc(-c3cc4c([nH]3)CCNC4=O)c2nc1NCC(C)(C)O [Example 148, 2-(3-((2-hydroxy-2-methylpropyl)amino)-2-methylquinoxalin-5-yl)-6,7-dihydro-1H-pyrrolo[3,2-c]pyridin-4(5H)-one] | – | 8.7 | 8 | 420 | – |
| CN(c1cnc2cccc(-c3cc4c([nH]3)CCNC4=O)c2n1)C(C)(C)C [Example 215, 2-(3-(tert-butyl(methyl)amino)quinoxalin-5-yl)-6,7-dihydro-1H-pyrrolo[3,2-c]pyridin-4(5H)-one] | – | 0.7 | 0.6 | – | IC50 [3, 4]: 153 nM |
| O=C1NCCc2[nH]c(-c3cccc4ccc(NC5CC5)nc34)cc21 [Example 99, 2-(2-(cyclopropylamino)quinolin-8-yl)-6,7-dihydro-1H-pyrrolo[3,2-c]pyridin-4(5H)-one] | – | 7 | 1.1 | 723 | – |
| Cc1nc2cccc(-c3cc4c([nH]3)CCNC4=O)c2nc1NC1CCCC(O)C1 (racemic) [Example 204, 2-(3-((3-hydroxycyclohexyl)amino)-2-methylquinoxalin-5-yl)-6,7-dihydro-1H-pyrrolo[3,2-c]pyridin-4(5H)-one] | – | 3.5 | 2.6 | 445 | – |
| CC1(Nc2cnc3cccc(-c4cc5c([nH]4)CCNC5=O)c3n2)CC1 [Example 211, 2-(3-((1-methylcyclopropyl)amino)quinoxalin-5-yl)-6,7-dihydro-1H-pyrrolo[3,2-c]pyridin-4(5H)-one] | – | 0.3 | 0.2 | 49.7 | – |
